Where a name gives a salt, the structure may show the parent alone.
Legend:
Format in all cases: biochemical
recombinant human VAP-1 = target: T1, recombinant human VAP-1 (Homo sapiens, UniProt Q16853); assay: Activity on recombinant human VAP-1, HRP-coupled Amplex Red hydrogen peroxide assay; conditions: substrate 1 mM benzylamine; compound incubated with enzyme at 37° C. for 30 minutes; pH 7.4; read-out: Inhibitory Activity (IC50, nM) human VAP-1
T1 construct: purchased R&D systems
T1 sequence (Q16853 1-763): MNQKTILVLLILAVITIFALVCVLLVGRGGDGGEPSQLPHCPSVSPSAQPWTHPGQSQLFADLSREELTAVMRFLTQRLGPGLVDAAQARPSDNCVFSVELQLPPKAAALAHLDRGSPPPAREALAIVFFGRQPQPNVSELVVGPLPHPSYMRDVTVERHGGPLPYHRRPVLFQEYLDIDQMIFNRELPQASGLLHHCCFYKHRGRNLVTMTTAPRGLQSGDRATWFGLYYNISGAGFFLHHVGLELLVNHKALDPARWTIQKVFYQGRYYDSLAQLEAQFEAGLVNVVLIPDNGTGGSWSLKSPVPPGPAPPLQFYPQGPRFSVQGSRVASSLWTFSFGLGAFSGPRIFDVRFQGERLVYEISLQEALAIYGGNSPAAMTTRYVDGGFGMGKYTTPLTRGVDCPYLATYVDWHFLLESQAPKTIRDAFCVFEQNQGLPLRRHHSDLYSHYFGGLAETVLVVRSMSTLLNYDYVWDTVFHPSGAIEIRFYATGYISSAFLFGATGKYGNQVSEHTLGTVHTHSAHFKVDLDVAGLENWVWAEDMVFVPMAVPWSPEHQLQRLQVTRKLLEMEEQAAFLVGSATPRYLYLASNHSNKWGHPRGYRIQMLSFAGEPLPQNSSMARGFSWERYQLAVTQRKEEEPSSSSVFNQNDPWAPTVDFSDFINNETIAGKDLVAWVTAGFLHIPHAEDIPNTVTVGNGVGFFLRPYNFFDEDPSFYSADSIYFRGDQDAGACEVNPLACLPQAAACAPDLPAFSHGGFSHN
Outline: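 Compounds were preincubated with purified enzyme in 50 mM sodium phosphate pH 7.4 at 37 °C for 30 min, then 200 uM Amplex Red, 1 mM benzylamine and 1 U/mL HRP were added. Resorufin fluorescence (ex 544/em 590 nm) was followed over 1-2 h; IC50 came from 4-parameter fits of signal-rate inhibition.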

[1] = target: T2, recombinant human MAO-A (monoamine oxidase-A) (Homo sapiens, UniProt P21397); assay: Activity on recombinant human MAO-A, method similar to the VAP-1 assay; conditions: substrate 0.5 mM tyramine; read-out: Inhibitory Activity (IC50, nM) MAO-A
T2 construct: purchased Sigma-Aldrich
T2 sequence (P21397 1-527): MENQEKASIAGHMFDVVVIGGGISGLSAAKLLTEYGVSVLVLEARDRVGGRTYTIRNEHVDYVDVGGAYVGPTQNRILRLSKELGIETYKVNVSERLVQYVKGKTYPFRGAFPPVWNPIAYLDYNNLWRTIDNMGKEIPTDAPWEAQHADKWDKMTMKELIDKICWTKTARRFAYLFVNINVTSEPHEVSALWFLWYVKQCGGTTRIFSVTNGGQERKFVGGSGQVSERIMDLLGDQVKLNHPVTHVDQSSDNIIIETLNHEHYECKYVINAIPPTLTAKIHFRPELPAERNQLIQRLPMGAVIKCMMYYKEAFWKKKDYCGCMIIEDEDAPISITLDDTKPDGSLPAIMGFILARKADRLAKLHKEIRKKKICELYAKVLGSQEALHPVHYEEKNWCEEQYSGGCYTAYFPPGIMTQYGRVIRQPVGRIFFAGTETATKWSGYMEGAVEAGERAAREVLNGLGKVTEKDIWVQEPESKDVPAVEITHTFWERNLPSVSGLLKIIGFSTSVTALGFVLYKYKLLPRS
Outline: (§1)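 8-point, 1:3 dose-response, four-parameter logistic IC50 from reduction in fluorescence rate versus DMSO control. HRP/Amplex Red detection of H2O2 (ex 544, em 590 nm) after 30 min, 37 °C compound–enzyme preincubation in pH 7.4 phosphate buffer. MAO-A substrate: 0.5 mM tyramine; MAO-B: 1 mM benzylamine.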

[2] = target: T3, recombinant human MAO-B (monoamine oxidase-B) (Homo sapiens, UniProt P27338); assay: Activity on recombinant human MAO-B, method similar to the VAP-1 assay; conditions: substrate 1 mM benzylamine; read-out: Inhibitory Activity (IC50, nM) MAO-B
T3 construct: purchased Sigma-Aldrich
T3 sequence (P27338 1-520): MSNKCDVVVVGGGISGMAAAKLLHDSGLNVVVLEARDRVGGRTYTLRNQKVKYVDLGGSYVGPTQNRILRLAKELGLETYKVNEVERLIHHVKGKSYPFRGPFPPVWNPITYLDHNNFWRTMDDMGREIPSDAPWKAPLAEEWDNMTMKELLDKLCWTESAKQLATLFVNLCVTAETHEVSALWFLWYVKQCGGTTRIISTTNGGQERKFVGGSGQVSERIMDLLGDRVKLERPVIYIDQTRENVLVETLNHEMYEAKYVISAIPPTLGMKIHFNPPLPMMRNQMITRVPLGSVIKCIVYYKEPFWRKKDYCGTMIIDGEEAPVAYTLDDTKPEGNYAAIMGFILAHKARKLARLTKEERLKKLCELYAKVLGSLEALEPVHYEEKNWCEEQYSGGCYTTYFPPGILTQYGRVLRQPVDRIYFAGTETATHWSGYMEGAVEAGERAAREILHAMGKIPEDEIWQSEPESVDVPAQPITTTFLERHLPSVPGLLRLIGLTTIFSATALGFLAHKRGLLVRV
Outline: as §1

[3] = target: T4, recombinant human DAO (diamine oxidase) (Homo sapiens, UniProt P19801); assay: Activity on recombinant human DAO, method similar to the VAP-1 assay; conditions: substrate 1 mM putrescine; read-out: Inhibitory Activity (IC50, nM) DAO
T4 construct: purchased R&D systems
T4 sequence (P19801 20-751): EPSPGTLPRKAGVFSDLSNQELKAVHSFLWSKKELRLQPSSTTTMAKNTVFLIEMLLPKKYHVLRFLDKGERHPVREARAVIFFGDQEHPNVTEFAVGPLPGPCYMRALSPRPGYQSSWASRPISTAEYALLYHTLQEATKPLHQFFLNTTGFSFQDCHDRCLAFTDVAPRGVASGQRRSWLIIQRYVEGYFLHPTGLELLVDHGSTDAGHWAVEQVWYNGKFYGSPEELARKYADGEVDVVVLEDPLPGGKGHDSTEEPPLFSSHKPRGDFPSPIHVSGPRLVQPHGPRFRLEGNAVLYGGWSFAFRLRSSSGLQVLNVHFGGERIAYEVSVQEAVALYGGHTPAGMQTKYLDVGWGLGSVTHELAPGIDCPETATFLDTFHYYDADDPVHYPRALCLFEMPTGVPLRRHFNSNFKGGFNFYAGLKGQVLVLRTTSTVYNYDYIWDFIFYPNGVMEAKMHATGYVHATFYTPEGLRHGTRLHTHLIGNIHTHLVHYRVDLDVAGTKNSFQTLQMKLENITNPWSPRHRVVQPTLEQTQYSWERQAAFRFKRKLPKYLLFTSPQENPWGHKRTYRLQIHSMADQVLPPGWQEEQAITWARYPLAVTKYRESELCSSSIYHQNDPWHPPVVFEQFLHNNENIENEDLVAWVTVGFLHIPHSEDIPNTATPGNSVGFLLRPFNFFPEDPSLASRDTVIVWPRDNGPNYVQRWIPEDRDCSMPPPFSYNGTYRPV
Outline: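 Inhibition of recombinant human diamine oxidase (DAO, R&D systems) was assessed by the same approach as the VAP-1 assay, using 1 mM putrescine as substrate. Hydrogen peroxide formed was detected through an HRP-coupled Amplex Red reaction yielding fluorescent resorufin, read at 544 nm excitation and 590 nm emission. IC50 values came from four-parameter logistic fitting in GraphPad Prism.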

| SMILES | IC50 (recombinant human VAP-1) [nM] | IC50 [1] [nM] | IC50 [2] [nM] | IC50 [3] [nM] |
| --- | --- | --- | --- | --- |
| NC/C(=C\F)Cn1ncn(Cc2ccc(C#Cc3cnc4c(c3)OCCN4)s2)c1=O [Example 137, 2-[(E)-2-(aminomethyl)-3-fluoro-allyl]-4-[[5-[2-(3,4-dihydro-2H-pyrido[3,2-b][1,4]oxazin-7-yl)ethynyl]-2-thienyl]methyl]-1,2,4-triazol-3-one] | 1.4 | > 100000 | 390 | 1400 |
| NC/C(=C\F)Cn1ncn(Cc2ccc(C#Cc3cnc4c(c3)NC(=O)CO4)s2)c1=O [Example 138, 7-[2-[5-[[1-[(E)-2-(aminomethyl)-3-fluoro-allyl]-5-oxo-1,2,4-triazol-4-yl]methyl]-2-thienyl]ethynyl]-1H-pyrido[2,3-b][1,4]oxazin-2-one hydrochloride] | 0.2 | > 100000 | 2300 | 470 |
| NC/C(=C\F)Cn1ncn(Cc2ccc(C#Cc3cnc4c(c3)OCC(=O)N4)s2)c1=O [Example 139, 7-[2-[5-[[1-[(E)-2-(aminomethyl)-3-fluoro-allyl]-5-oxo-1,2,4-triazol-4-yl]methyl]-2-thienyl]ethynyl]-4H-pyrido[3,2-b][1,4]oxazin-3-one hydrochloride] | 0.5 | > 100000 | 73 | 290 |
| Cn1cc(-c2ccc(Cn3cnn(C/C(=C/F)CN)c3=O)s2)cn1 [Example 142, 2-[(2E)-2-(aminomethyl)-3-fluoroprop-2-en-1-yl]-4-{[5-(1-methyl-1H-pyrazol-4-yl)thiophen-2-yl]methyl}-2,4-dihydro-3H-1,2,4-triazol-3-one] | 2.9 | > 100000 | 1000 | 11000 |
| NC/C(=C\F)Cn1ncn(Cc2ccc(-c3ccc(-c4noc(=O)[nH]4)cc3)s2)c1=O [Example 144, 3-{4-[5-({1-[(2E)-2-(aminomethyl)-3-fluoroprop-2-en-1-yl]-5-oxo-1,5-dihydro-4H-1,2,4-triazol-4-yl}methyl)thiophen-2-yl]phenyl}-1,2,4-oxadiazol-5(4H)-one] | 4.6 | > 100000 | 13000 | 7400 |
| NC/C(=C\F)Cn1ncn(Cc2ccc(-c3ccc(CN4CCOCC4)nc3)s2)c1=O [Example 145, 2-[(2E)-2-(aminomethyl)-3-fluoroprop-2-en-1-yl]-4-({5-[6-(morpholin-4-ylmethyl)pyridin-3-yl]thiophen-2-yl}methyl)-2,4-dihydro-3H-1,2,4-triazol-3-one] | 4.4 | > 100000 | > 100000 | 490 |
| NC/C(=C\F)Cn1ncn(Cc2ccc(-c3cc4c(cc3F)NC(=O)CC4)s2)c1=O [Example 146, 6-[5-({1-[(2E)-2-(aminomethyl)-3-fluoroprop-2-en-1-yl]-5-oxo-1,5-dihydro-4H-1,2,4-triazol-4-yl}methyl)thiophen-2-yl]-7-fluoro-3,4-dihydroquinolin-2(1H)-one] | 0.4 | > 100000 | 3900 | 1300 |
| CN1Cc2cc(-c3ccc(Cn4cnn(C/C(=C/F)CN)c4=O)s3)ccc2NC1=O [Example 147, 6-[5-({1-[(2E)-2-(aminomethyl)-3-fluoroprop-2-en-1-yl]-5-oxo-1,5-dihydro-4H-1,2,4-triazol-4-yl}methyl)thiophen-2-yl]-3-methyl-3,4-dihydroquinazolin-2(1H)-one] | 0.3 | > 100000 | 6700 | 1000 |

The remaining compounds from weak to strong by IC50 (recombinant human VAP-1), led by results:

| IC50 (recombinant human VAP-1) [nM] | IC50 [1] [nM] | IC50 [2] [nM] | IC50 [3] [nM] | SMILES |
| --- | --- | --- | --- | --- |
| 9.2 | > 100000 | > 10000 | 4200 | NC/C(=C\F)Cn1ncn(CCc2cccs2)c1=O [Example 141, 2-[(2E)-2-(aminomethyl)-3-fluoroprop-2-en-1-yl]-4-[2-(thiophen-2-yl)ethyl]-2,4-dihydro-3H-1,2,4-triazol-3-one] |
| 1.5 | 20000 | 640 | 790 | NC/C(=C\F)Cn1ncn(Cc2ccc(C#Cc3ccc4c(n3)OCCN4)s2)c1=O [Example 136, 2-[(E)-2-(aminomethyl)-3-fluoro-allyl]-4-[[5-[2-(2,3-dihydro-1H-pyrido[2,3-b][1,4]oxazin-6-yl)ethynyl]-2-thienyl]methyl]-1,2,4-triazol-3-one hydrochloride] |
| 1.4 | > 100000 | 2600 | 1700 | CC(C)n1cc(-c2ccc(Cn3cnn(C/C(=C/F)CN)c3=O)s2)ccc1=O [Example 143, 5-[5-({1-[(2E)-2-(aminomethyl)-3-fluoroprop-2-en-1-yl]-5-oxo-1,5-dihydro-4H-1,2,4-triazol-4-yl}methyl)thiophen-2-yl]-1-(propan-2-yl)pyridin-2(1H)-one] |
| 1.1 | > 100000 | 750 | 1100 | NC/C(=C\F)Cn1ncn(Cc2ccc(C#Cc3cnc4c(c3)NCCO4)s2)c1=O [Example 135, 2-[(E)-2-(aminomethyl)-3-fluoro-allyl]-4-[[5-[2-(2,3-dihydro-1H-pyrido[2,3-b][1,4]oxazin-7-yl)ethynyl]-2-thienyl]methyl]-1,2,4-triazol-3-one] |

Reference: patent US11780830B2, “Triazolone derivatives or salts thereof and pharmaceutical compositions comprising the same” (YUHAN CORPORATION, priority 2018, dated 2023)
